Reference: PubChem BioAssay (NCI)
Values joined by “and” are separate entries in the source; they are usually repeats but may differ in a detail not shown here. Identical values can stand only once.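 Step 1: Grow cells in 96-well plates. Step 2: Expose to compound for 48 hours at 5 concentrations. Step 3: Interpolate endpoints linearly; if unreached, use highest concentration. GI50 marks 50% less growth. TGI: total growth inhibition.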

Legend:
Experiment in all cases: DTP human tumour cell line panel, 48 h
HCC-2998 colon = system: HCC-2998 colon
MOLT-4 leukemia = system: MOLT-4 leukemia
HT29 colon = system: HT29 colon
HCT-116 colon = system: HCT-116 colon
COLO 205 colon = system: COLO 205 colon
LOX IMVI melanoma = system: LOX IMVI melanoma
DU-145 prostate = system: DU-145 prostate
MDA-MB-435 = system: MDA-MB-435
K-562 leukemia = system: K-562 leukemia

CCOC(=O)Cc1nc2c(=O)[nH]cnc2n1C1OC(COC(C)=O)C(OC(C)=O)C1OC(C)=O (stereo unspecified)
TGI (HCC-2998 colon): > 100 µM | TGI (MOLT-4 leukemia): > 100 µM | TGI (HT29 colon): > 100 µM | TGI (HCT-116 colon): > 100 µM | TGI (COLO 205 colon): > 100 µM | TGI (LOX IMVI melanoma): > 100 µM | TGI (DU-145 prostate): > 100 µM | TGI (MDA-MB-435): > 100 µM | TGI (K-562 leukemia): > 100 µM

c1ccc(COc2ncccc2C2SCCCS2)cc1
TGI (HCC-2998 colon): > 100 µM | TGI (HCT-116 colon): > 100 µM | TGI (COLO 205 colon): > 100 µM | TGI (LOX IMVI melanoma): > 100 µM | TGI (DU-145 prostate): > 100 µM | TGI (MDA-MB-435): > 100 µM | TGI (K-562 leukemia): > 100 µM

CSc1nc(Br)nc2c1ncn2C1CC(Oc2ccc(C)cc2)C(COc2ccc(C)cc2)O1 (stereo unspecified)
TGI (HCC-2998 colon): > 100 µM | TGI (MOLT-4 leukemia): > 100 µM | TGI (HT29 colon): > 100 µM | TGI (HCT-116 colon): > 100 µM | TGI (COLO 205 colon): > 100 µM | TGI (LOX IMVI melanoma): > 100 µM | TGI (DU-145 prostate): > 100 µM | TGI (MDA-MB-435): > 100 µM

OCc1ccccc1OC1OC(CO)C(O)C(O)C1O (stereo unspecified)
TGI (HCC-2998 colon): > 100 µM | TGI (MOLT-4 leukemia): > 100 µM | TGI (HT29 colon): > 100 µM | TGI (HCT-116 colon): > 100 µM | TGI (COLO 205 colon): > 100 µM | TGI (LOX IMVI melanoma): > 100 µM | TGI (DU-145 prostate): > 100 µM | TGI (MDA-MB-435): > 100 µM

COC1(OC)N=C(N)C2(C#N)/C(=N/N(C)C)CC(C)C12C#N (stereo unspecified)
TGI (HCC-2998 colon): > 100 µM | TGI (MOLT-4 leukemia): > 100 µM | TGI (HT29 colon): > 100 µM | TGI (HCT-116 colon): > 100 µM | TGI (COLO 205 colon): > 100 µM | TGI (LOX IMVI melanoma): > 100 µM | TGI (DU-145 prostate): > 100 µM | TGI (MDA-MB-435): > 100 µM | TGI (K-562 leukemia): > 100 µM

COC(=O)CNC(=O)/C=C/[C@H](O[Si](C)(C)C(C)(C)C)[C@H](/C=C/C(=O)NCC(=O)OC)O[Si](C)(C)C(C)(C)C
TGI (HCC-2998 colon): > 25 µM | TGI (MOLT-4 leukemia): > 25 µM | TGI (HT29 colon): > 25 µM | TGI (HCT-116 colon): > 25 µM | TGI (COLO 205 colon): > 25 µM | TGI (LOX IMVI melanoma): > 25 µM | TGI (DU-145 prostate): > 25 µM | TGI (MDA-MB-435): > 25 µM | TGI (K-562 leukemia): > 25 µM

CNC(=O)OCC1=C(COC(=O)NC)CN(c2ccccc2)C1
TGI (HCC-2998 colon): > 100 µM | TGI (MOLT-4 leukemia): > 100 µM | TGI (HT29 colon): > 100 µM | TGI (HCT-116 colon): > 100 µM | TGI (COLO 205 colon): > 100 µM | TGI (LOX IMVI melanoma): > 100 µM | TGI (DU-145 prostate): > 100 µM | TGI (MDA-MB-435): > 100 µM | TGI (K-562 leukemia): > 100 µM

CSC1(SC)CCCCCCCCCCC1
TGI (HCC-2998 colon): 40.5 µM | TGI (MOLT-4 leukemia): > 100 µM | TGI (HT29 colon): > 100 µM | TGI (HCT-116 colon): 31.4 µM | TGI (COLO 205 colon): 33.9 µM | TGI (LOX IMVI melanoma): 36.4 µM | TGI (DU-145 prostate): > 100 µM | TGI (MDA-MB-435): > 100 µM | TGI (K-562 leukemia): > 100 µM

COC1=CC2(C=CC1=O)CCN=c1c(O)c3c(c(O)c12)=NC=N3 (stereo unspecified)
TGI (HCC-2998 colon): > 100 µM | TGI (MOLT-4 leukemia): > 100 µM | TGI (HT29 colon): > 100 µM | TGI (HCT-116 colon): > 100 µM | TGI (COLO 205 colon): > 100 µM | TGI (LOX IMVI melanoma): > 100 µM | TGI (DU-145 prostate): > 100 µM | TGI (MDA-MB-435): > 100 µM | TGI (K-562 leukemia): > 100 µM

CC(=O)OCC1OC(n2c3c(c(-c4ccco4)c(C#N)c2=S)CCCC3)C(OC(C)=O)C(OC(C)=O)C1OC(C)=O (stereo unspecified)
TGI (MOLT-4 leukemia): > 31.6 µM | TGI (HT29 colon): > 31.6 µM | TGI (HCT-116 colon): > 31.6 µM | TGI (COLO 205 colon): > 31.6 µM | TGI (LOX IMVI melanoma): > 31.6 µM | TGI (DU-145 prostate): > 31.6 µM | TGI (MDA-MB-435): > 100 µM

COC(=O)CCc1ccc2c(c1)CC1(C2)Cc2ccc(CCC(=O)OC)cc2C1
TGI (HCC-2998 colon): > 100 µM | TGI (MOLT-4 leukemia): > 100 µM | TGI (HT29 colon): > 100 µM | TGI (HCT-116 colon): > 100 µM | TGI (COLO 205 colon): > 100 µM | TGI (LOX IMVI melanoma): 97.1 µM | TGI (MDA-MB-435): > 100 µM | TGI (K-562 leukemia): > 100 µM

CN(C)CCNc1nc2ccccc2c2c1C(=O)c1ccccc1-2
TGI (HCC-2998 colon): 0.511 µM | TGI (MOLT-4 leukemia): 0.098 µM | TGI (HT29 colon): 3.5 µM | TGI (HCT-116 colon): 1.38 µM | TGI (COLO 205 colon): 2.23 µM | TGI (LOX IMVI melanoma): 0.961 µM | TGI (DU-145 prostate): 1.51 µM | TGI (MDA-MB-435): 1.12 µM | TGI (K-562 leukemia): 0.396 µM

C=C1c2nc3ccccc3n2C=C(c2ccccc2)N1c1ccc(OC)cc1
TGI (MOLT-4 leukemia): > 100 µM | TGI (HCT-116 colon): 59.9 µM | TGI (COLO 205 colon): > 100 µM | TGI (LOX IMVI melanoma): > 100 µM | TGI (DU-145 prostate): > 100 µM | TGI (MDA-MB-435): > 100 µM | TGI (K-562 leukemia): > 100 µM

Cc1nn(C(=O)c2ccccc2O)c2c1C(c1ccc(O)cc1)SC(N)=N2 (stereo unspecified)
TGI (HCC-2998 colon): > 10 µM | TGI (MOLT-4 leukemia): > 10 µM | TGI (HT29 colon): > 10 µM | TGI (HCT-116 colon): > 3.32 µM | TGI (COLO 205 colon): > 10 µM | TGI (LOX IMVI melanoma): > 10 µM | TGI (DU-145 prostate): > 10 µM | TGI (MDA-MB-435): > 10 µM | TGI (K-562 leukemia): > 3.53 µM

O=C(O)c1ccc(Nc2cnc3ccc(C(F)(F)F)cc3n2)cc1
TGI (HCC-2998 colon): 19.6 µM | TGI (MOLT-4 leukemia): 44.5 µM | TGI (HT29 colon): 33.6 µM | TGI (HCT-116 colon): 37.6 µM | TGI (COLO 205 colon): 32.5 µM | TGI (LOX IMVI melanoma): 24.5 µM | TGI (DU-145 prostate): 69.5 µM | TGI (MDA-MB-435): 72.3 µM | TGI (K-562 leukemia): 51.4 µM

Cc1ccc(Nc2nnc3n2S(=O)(=O)c2cc(C)c(Cl)cc2S3)cc1
TGI (HCC-2998 colon): 55.8 µM | TGI (MOLT-4 leukemia): 32.7 µM | TGI (HT29 colon): 38.5 µM | TGI (HCT-116 colon): 67.2 µM | TGI (LOX IMVI melanoma): 65.2 µM | TGI (DU-145 prostate): > 100 µM | TGI (MDA-MB-435): 70.4 µM | TGI (K-562 leukemia): 23.8 µM

CN1C/C(=C\c2ccccc2[N+](=O)[O-])C(=O)/C(=C/c2ccccc2[N+](=O)[O-])C1
GI50 (HCC-2998 colon): 2.26 µM | TGI (HCC-2998 colon): 5.52 µM and 3.01 µM | GI50 (MOLT-4 leukemia): 0.308 µM | TGI (MOLT-4 leukemia): 1.02 µM and 0.572 µM | GI50 (HT29 colon): 0.173 µM and 0.169 µM | TGI (HT29 colon): 0.325 µM and 0.409 µM | TGI (HCT-116 colon): 0.546 µM and 0.415 µM | TGI (COLO 205 colon): 0.865 µM and 0.387 µM | TGI (DU-145 prostate): 6.66 µM and 3.62 µM | GI50 (MDA-MB-435): 0.86 µM and 0.254 µM | TGI (MDA-MB-435): 3.1 µM and 0.706 µM | GI50 (K-562 leukemia): 0.25 µM and 0.089 µM

C=CCOn1c(C=C)nc2c(C)cccc21
TGI (HCC-2998 colon): 17.8 µM | TGI (MOLT-4 leukemia): 17 µM | TGI (HT29 colon): 11.6 µM | TGI (HCT-116 colon): 4.97 µM | TGI (COLO 205 colon): 3.6 µM | TGI (LOX IMVI melanoma): 12.2 µM | TGI (MDA-MB-435): 3.4 µM | TGI (K-562 leukemia): 20.6 µM

COc1cc([C@@H]2c3cc4c(cc3[C@@H](Nc3ccc(Cl)cc3C(=O)c3ccccc3Cl)[C@H]3COC(=O)[C@H]23)OCO4)cc(OC)c1OC
TGI (HCC-2998 colon): > 100 µM | TGI (MOLT-4 leukemia): > 100 µM | TGI (HT29 colon): > 100 µM | TGI (HCT-116 colon): > 100 µM | TGI (LOX IMVI melanoma): > 100 µM | TGI (DU-145 prostate): > 100 µM | TGI (MDA-MB-435): 0.397 µM | TGI (K-562 leukemia): > 100 µM

O=C(Nc1ccccc1)N1N=C(c2ccccc2)C1c1ccccc1 (stereo unspecified)
TGI (HCC-2998 colon): > 100 µM | TGI (HT29 colon): 39.8 µM | TGI (HCT-116 colon): 44.8 µM | TGI (COLO 205 colon): > 100 µM | TGI (LOX IMVI melanoma): 89.6 µM | TGI (DU-145 prostate): > 100 µM

Clc1ncc(C(Cl)(Cl)Cl)nc1-c1ccccc1
TGI (HCC-2998 colon): 2.9 µM | TGI (MOLT-4 leukemia): 28.9 µM | TGI (HT29 colon): 3.65 µM | TGI (HCT-116 colon): 3.52 µM | TGI (COLO 205 colon): 4.11 µM | TGI (LOX IMVI melanoma): 15.4 µM | TGI (DU-145 prostate): 2.96 µM | TGI (MDA-MB-435): 3.54 µM | TGI (K-562 leukemia): 12.4 µM

COc1ccccc1OC/C(N=Cc1ccncc1)=N/NC(=O)c1ccncc1
TGI (HCC-2998 colon): > 100 µM | TGI (MOLT-4 leukemia): > 100 µM | TGI (HT29 colon): > 100 µM | TGI (HCT-116 colon): > 100 µM | TGI (COLO 205 colon): > 100 µM | TGI (LOX IMVI melanoma): > 100 µM | TGI (DU-145 prostate): > 100 µM | TGI (MDA-MB-435): > 100 µM | TGI (K-562 leukemia): > 100 µM
